Measured values taken from paper PMC6362118, “Pharmacophore-guided discovery of CDC25 inhibitors causing cell cycle arrest and tumor regression” (Scientific Reports, 2019).

Assays:
[1] = target: T1, CDC25A (Homo sapiens, UniProt P30304); test: Enzymatic assay (OMFP substrate) on recombinant CDC25A; type: biochemical; settings: for remaining activity at 20 µM: read-out: % remaining activity ± SD (Table S2, second round of selection); for IC50: dose-response on recombinant CDC25A
T1 construct: GST (pGEX vector) (N); made in house; host or cells: E. coli BL21
T1 sequence (P30304 1-524): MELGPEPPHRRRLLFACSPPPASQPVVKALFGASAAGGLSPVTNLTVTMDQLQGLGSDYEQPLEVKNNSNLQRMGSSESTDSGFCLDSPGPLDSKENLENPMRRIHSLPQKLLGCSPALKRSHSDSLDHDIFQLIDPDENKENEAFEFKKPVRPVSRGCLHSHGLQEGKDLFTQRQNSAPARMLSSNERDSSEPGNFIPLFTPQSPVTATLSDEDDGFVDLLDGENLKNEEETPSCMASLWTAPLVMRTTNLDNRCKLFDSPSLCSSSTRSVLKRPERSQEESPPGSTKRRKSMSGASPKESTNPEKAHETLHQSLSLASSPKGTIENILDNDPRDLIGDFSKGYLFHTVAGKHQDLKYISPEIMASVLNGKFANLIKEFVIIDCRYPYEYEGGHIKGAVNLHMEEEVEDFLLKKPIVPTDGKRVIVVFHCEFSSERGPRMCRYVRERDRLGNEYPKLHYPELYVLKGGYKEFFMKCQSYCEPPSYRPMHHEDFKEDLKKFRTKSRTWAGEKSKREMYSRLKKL
Method: 57 UPD compounds were dissolved in DMSO at 10 mM stock concentration and stored in
60 Expression and purification of CDC25 phosphatases - CDC25A (kind gift of I.
61 Hoffmann, Heidelberg, Germany), CDC25B and CDC25C (kind gift of B. Gabrielli,
62 Queensland, Australia) in pGEX were expressed in E. coli BL21 cells and purified on 1
63 ml Glutathione Sepharose 4 Fast Flow columns as described 1.
65 Enzymatic assays - CDC25A, CDC25B and CDC25C were appropriately diluted in 10
66 mM Tris-HCl pH 8.0, 50 mM NaCl and assayed in 20 mM Tris-HCl pH 8.0, 75 mM
67 NaCl, 0.5 mM EGTA, 1 mM DTT, 0.1 mg/ml BSA and defined concentrations of
68 compounds. Reactions were started by addition of the substrate OMFP (0.1 mM). Assays
69 were carried out at room temperature in duplicate or triplicate using transparent-bottom,
70 V-shaped 96 well plates and read at defined intervals on a Molecular Devices
71 SpectraMax microplate reader (ex: 490 nm / em: 525 nm). IC50 and kinetic parameters
72 calculated from Lineweaver-Burk double-reciprocal plots of the data were obtained using
73 GraphPad Prism software. […]

[2] = test system: HeLa cells; test: Flow cytometric analysis of cell cycle progression (DNA content) in HeLa cells; type: cell-based; settings: for effect on the G1/S transition: HeLa synchronized at G2/M, 10 μM added in mid-G1, analysed 12 h post-release; for effect on cell cycle distribution (DNA content): asynchronous HeLa cells, 10 μM, 15 h
Method: Reactions were started by addition of the substrate OMFP (0.1 mM). Assays 69 were carried out at room temperature in duplicate or triplicate using transparent-bottom, 70 V-shaped 96 well plates and read at defined intervals on a Molecular Devices 71 SpectraMax microplate reader (ex: 490 nm / em: 525 nm). IC50 and kinetic parameters 72 calculated from Lineweaver-Burk double-reciprocal plots of the data were obtained using 73 GraphPad Prism software. 74 75 Cell culture - Wild-type HeLa and Kyoto HeLa cells stably expressing mCherry-H2B 76 were maintained in DMEM+L-Glutamine (Gibco, Life Technologies, USA) 77 supplemented with 5% fetal calf serum (FCS) (Gibco) and penicillin-streptomycin (100 […] A549 and Colo741 were grown and maintained like HeLa 79 cells but with 10% FCS. HCT116 were maintained in McCoy's medium supplemented 80 with 10% FCS and penicillin-streptomycin. U2OS-Tet-OFF cells expressing HA-CDC25 81 were grown and maintained in DMEM+L-Glutamine, 10% Tet-free FCS and penicillin- 82 streptomycin in the presence or the absence of 4 μg/ml tetracycline (Sigma, T7660). 83 84 Cell synchronization - Cell synchronization was performed by double thymidine block- 85 release protocol 2 or nocodazole treatment 3 and verified by flow cytometry. 86 87 Cell viability assays - Compounds viability upon 48h treatment with the compounds was 88 assessed as described 4. Data were plotted with Prism 7® and analyzed by non-linear 89 regression. Comparison of single curve fitting to all data set within an experiment was 90 performed with the extra sum-of-squares F-test to determine P values. 91 92 Western blotting - Cell lysis and immunoblot analysis were performed as previously 93 described 5. […] Cells were washed with PBS, resuspended […] To 100 quantify phosphorylation of CDK1 at Tyr15 and H2AX at S139, cells were harvested and 101 examined as described 6. Samples were measured on an AttuneTM NxT Cytometer 102 (ThermoFisher Scientific, Carlsbad, CA, USA) and data were analyzed with FlowJo® 103 software v10 (FlowJo, LLC, Ashland, OR, USA). 104 105 Real Time qRT-PCR - Organoids were lysed in Tri-Reagent (Sigma) as previously 106 described 7 and total RNA was isolated as described by manufacturer's instructions. For […] 108 High Fidelity cDNA Synthesis kit (Roche). Real-time quantitative PCR reactions were 109 performed in three independent biological replicates, each with technical triplicate, using 110 the Applied Biosystems SYBR Green Kit and monitored by the ABI Prism 7900HT 111 system (Applied Biosystem). The following primers were used: 112 Lgr5: Forward [NT] and Reverse 5'- […] 114 Lysozyme: Forward [NT] and Reverse 5'- 115 [NT]3' 116 Cryptdin: Forward [NT] and Reverse 5'- 117 [NT]-binding protein (TBP): Forward [NT] and 119 Reverse [NT] 120 […] 122 amplification curves and the melting temperature analysis of the final amplification […] 4

[3] = test system: HeLa cells; test: Cell viability assay on HeLa cells; type: cell-based; settings: Homo sapiens, 48h treatment
Method: 75 Cell culture - Wild-type HeLa and Kyoto HeLa cells stably expressing mCherry-H2B
76 were maintained in DMEM+L-Glutamine (Gibco, Life Technologies, USA)
77 supplemented with 5% fetal calf serum (FCS) (Gibco) and penicillin-streptomycin (100
78 U/ml - 100 µg/ml) (Gibco). […]
87 Cell viability assays - Compounds viability upon 48h treatment with the compounds was
88 assessed as described 4. Data were plotted with Prism 7® and analyzed by non-linear
89 regression. Comparison of single curve fitting to all data set within an experiment was
90 performed with the extra sum-of-squares F-test to determine P values. […]

[4] = test system: HCT116 tumors; test: HCT116 tumor xenograft in zebrafish embryos; type: in vivo; settings: 10 µM, 3 dpi
Method: Implantation of HCT116 cells into zebrafish embryos were carried out essentially as previously described. Briefly, HCT116 cells were cultured in McCoy’s medium supplemented with 10% FCS and penicillin/streptomycin until ~80% confluence, then labeled for 30 min at 37 °C in 6 μg/mL 1,1′-dioctadecyl-3,3,3′,3′-tetramethylindocarbocyanine perchlorate (DiI, Sigma) in PBS followed by washing 3x in PBS. Labeled cells were implanted in the perivitelline space of 48 hours post-fertilization (hpf) wildtype (AB) zebrafish embryos, kept from the 1-cell stage in 1-phenyl-2-thiourea (PTU)-containing E3-water. […] As control, embryos were incubated in PTU-E3 with 0.1% DMSO (vehicle). Tumor-bearing embryos were incubated at 36 °C for three days and the change in tumor volume was evaluated as the size of the tumors at three days post-implantation (3 dpi) relative to the size immediately after implantation (0 dpi). Metastasis was evaluated at 3 dpi as the number of tumor cells present in the caudal hematopoietic plexus, the main metastatic site for tumors implanted in the perivitelline space.

[5] = test system: HeLa cells; test: Time-lapse microscopy of mitosis in synchronized HeLa cells; type: cell-based; settings: synchronized HeLa Kyoto cells (mCherry-H2B, GFP-α-tubulin), 5 μM
Method: Cells were grown in 35 mm CellView™ cell culture dishes with glass bottom (# 627870, Greiner-BioOne) at a density of 2.5 × 10^5 cells/ml in a humidified cell incubator maintained at 37 °C and 5% CO2. Cell were viewed by phase contrast microscopy with a 10x objective using an Olympus IX 81 motorized inverted microscope (Olympus, Hamburg, Germany) equipped with external temperature control chamber and CO2 bottle to maintain cells at 37 °C with 5% CO2. Transition through mitosis was documented by acquisition of four frames per hour over a period of 14 h using a CCD camera (Orca AG, Hamamatsu) and cellR® software (Olympus). HeLa-Kyoto cells (mCherry-H2B/EGFP-α-tubulin) were visualized by fluorescence microscopy with an Olympus IX 81 microscope using a 10x objective and selecting Ex. = 492 ± 18 nm/Em. = 535 ± 50 nm for the green channel and Ex. = 572 ± 23 nm/Em. = 645 ± 75 nm for the red channel.

[6] = compound 20 µM, relative to DMSO control

SMILES | remaining activity at 20 µM [1, 6] | effect on cell cycle distribution (DNA content) [2] | other results
Cc1cc(O)c2c(n1)C(=O)C=CC2=O [UPD-1416, 4-Hydroxy-2-methylquinoline-5,8-dione] | 4.1% |  | 
Cc1ccc(SC2=CC(=O)c3cccc(O)c3C2=O)cc1 [UPD-793, 3-(p-tolylthio)juglone] |  | increase of the G1 population | effect on the G1/S transition [2]: effectively blocked cells in G1; % remaining activity ± SD (Table S2, second round of selection) [1, 6]: 1.0 ± 0.1%; IC50 [1]: 920 nM
O=C1C=C(N2CCCCC2)C(=O)c2c(O)cccc21 [UPD-797, 8-hydroxy-2-(piperidin-1-yl)naphthalene-1,4-dione] | 8.5 ± 0.1% |  | 
O=C1C=CC(=O)c2c(O)cccc21 [UPD-738, 5-hydroxynaphtho-1,4-quinone] | 5.9 ± 0.1% | increase of the G1 population | IC50 [3]: 4400 nM; effect on the G1/S transition [2]: effectively blocked cells in G1; metastasis (tumor cells in caudal hematopoietic plexus) [4]: did not appear to be significant
COc1ccc(C2=CC(=O)c3cccc(O)c3C2=O)c(OC)c1 [UPD-790, 8-hydroxy-2-(2,4-dimethoxyphenyl)naphthalene-1,4-dione] | 5.6 ± 1.2% | accumulation of cells at G2/M | IC50 [3]: 1410 nM; execution of mitosis at low dose (time-lapse) [5]: failed attempt to round up and execute mitosis, which was followed by membrane blebbing and death; effect on the G2/M transition ([2]; double-thymidine synchronized HeLa, 10 μM added 5 h upon release, analysed 12 h post-release): accretion of the G2/M peak
Nc1ccc(N)c2c1C(=O)C=CC2=O [UPD-1382, 5,8-diaminonaphthalene-1,4-dione] | 94.4 ± 0.6% |  | 
O=C1C=C(N2CCOCC2)C(=O)c2c(O)cccc21 [UPD-798, N-(5-hydroxy-1,4-naphthoquinon-3-yl)morpholine] | 41.4 ± 0.4% |  | 
Cc1ccc2c(n1)C(=O)C=CC2=O [UPD-1419, 2-methyl-5,8-dihydro-5,8-dioxoquinoline] | 1.9 ± 0.3% |  | 
O=C1C=C(c2ccc(O)c(O)c2O)C(=O)c2c(O)cccc21 [UPD-786, 8-hydroxy-2-(2,3,4 trihydroxyphenyl) naphthalene-1,4-dione] | 0% | increase of the G1 population | IC50 [3]: 6500 nM; IC50 [1]: 890 nM
O=C(O)c1ccc2c(c1)C(=O)c1c(O)ccc(O)c1C2=O [UPD-724, 1,4-dihydroxy-6-anthraquinonecarboxylic acid] | 98.9 ± 1.4% |  | 
O=C1C=C(c2c(O)cc(O)cc2O)C(=O)c2c(O)cccc21 [UPD-788, 8-hydroxy-2-(2,4,6-trihydroxyphenyl)naphthalene-1,4-dione] | 70.1 ± 2% |  | 
O=C1C=C(c2ccc(O)cc2O)C(=O)c2ccccc21 [UPD-597, 2-(2,4-dihydroxyphenyl)-1,4-naphthoquinone] | 3.1 ± 0.3% |  | 
O=C1C=C(c2ccc(O)c(O)c2O)C(=O)c2ccccc21 [UPD-596, 2-(2,3,4-trihydroxyphenyl)-1,4-naphthoquinone] | 0% | increase of the G1 population | effect on the G1/S transition [2]: ineffective
